Measured values: patent US20150246093A1, “ORAL FORMULATIONS OF ANGIOTENSIN” (TARIX PHARMACEUTICALS LTD., priority 2012, published 2015)
Where “and” joins values, the source holds several entries; their conditions need not be identical. Equal values may be shown once. Read-outs that look alike come from different tables or passages of the source.

Assay: Pharmacokinetics after subcutaneous (SC) administration of angiotensin (1-7) in PBS, plasma LC-MS
Format: in vivo, female Sprague-Dawley rats
Conditions: for AUC(0-t): read-out: AUC0-90 (converted)
Experimental: Initially, a baseline pharmacokinetic profile in female Sprague-Dawley rats was obtained by subcutaneous (SC) administration of angiotensin (1-7) in phosphate buffered saline (PBS). […]
After extraction, the samples were then transferred to ice-cold tubes containing a protease inhibitor cocktail. The samples were kept on ice until they were centrifuged at 4° C. to obtain plasma. The plasma supernatants were then frozen −70° C. until analysis using an LC-MS assay.
Table 1 summarized exemplary individual baseline A(1-7) levels achieved at the designated time points and the non-compartmental PK values. Three rats were administered 0.3 mL of 10 mg/mL A(1-7) as a subcutaneous injection. The pharmacokinetics of A(1-7) were determined using a non-compartmental model, where individual pharmacokinetics were determined. The mean concentration for each time point was calculated and the PK values for these mean values were estimated. The Tmax was achieved approximately 10 to 90 minutes after administration. Half-lives are approximately 15 minutes for this treatment group. Total mean A(1-7) exposure over the observation period was 614 ng*min/mL with a range of 585 to 656 ng*min/mL.

[1] = SC 0.3 mL of 10 mg/mL A(1-7) in PBS, individual rats

Total mean A(1-7) exposure over the observation period (0.3 mL of 10 mg/mL A(1-7) subcutaneous injection, three rats): 614 ng·min/mL | AUC0-90 [1]: 598.1 ng·min/mL and 656.1 ng·min/mL | Cmax [1]: 15.7 ng/mL and 17.4 ng/mL | Half-Life [1]: 15.58 min | Angiotensin (1-7) concentration (SC 0.3 mL of 10 mg/mL A(1-7) in PBS, time point 10 min, individual rats): 18.6 ng/mL and 0.94 ng/mL and 1.09 ng/mL | Angiotensin (1-7) concentration (SC 0.3 mL of 10 mg/mL A(1-7) in PBS, time point 20 min, individual rats): 6.25 ng/mL and 15.7 ng/mL and 5.71 ng/mL | Angiotensin (1-7) concentration (SC 0.3 mL of 10 mg/mL A(1-7) in PBS, time point 60 min, individual rats): 1.03 ng/mL and 2.65 ng/mL and 7.46 ng/mL | Angiotensin (1-7) concentration (SC 0.3 mL of 10 mg/mL A(1-7) in PBS, time point 90 min, individual rats): 1.14 ng/mL and 6.59 ng/mL and 17.4 ng/mL | level at 0 h (female, Sprague-Dawley, rat, plasma, 3 mg, SC 0.3 mL of 10 mg/mL A(1-7) in PBS, time point 0 min (before injection), Average, read-out: Angiotensin (1-7) concentration): 4.5 ng/mL | level at 5 min (female, Sprague-Dawley, rat, plasma, 3 mg, SC 0.3 mL of 10 mg/mL A(1-7) in PBS, time point 5 min, Average, read-out: Angiotensin (1-7) concentration): 3.99 ng/mL | level at 10 min (female, Sprague-Dawley, rat, plasma, 3 mg, SC 0.3 mL of 10 mg/mL A(1-7) in PBS, time point 10 min, Average, read-out: Angiotensin (1-7) concentration): 6.88 ng/mL | level at 20 min (female, Sprague-Dawley, rat, plasma, 3 mg, SC 0.3 mL of 10 mg/mL A(1-7) in PBS, time point 20 min, Average, read-out: Angiotensin (1-7) concentration): 9.22 ng/mL | level at 40 min (female, Sprague-Dawley, rat, plasma, 3 mg, SC 0.3 mL of 10 mg/mL A(1-7) in PBS, time point 40 min, Average, read-out: Angiotensin (1-7) concentration): 8.72 ng/mL | level at 1 h (female, Sprague-Dawley, rat, plasma, 3 mg, SC 0.3 mL of 10 mg/mL A(1-7) in PBS, time point 60 min, Average, read-out: Angiotensin (1-7) concentration): 3.71 ng/mL | level at 1.5 h (female, Sprague-Dawley, rat, plasma, 3 mg, SC 0.3 mL of 10 mg/mL A(1-7) in PBS, time point 90 min, Average, read-out: Angiotensin (1-7) concentration): 8.38 ng/mL | Tmax (female, Sprague-Dawley, rat, plasma, sc, 3 mg, 0.3 mL of 10 mg/mL A(1-7) subcutaneous injection, three rats, range over the group, read-out: Tmax after administration): 10 to 90 min | Half-Life (female, Sprague-Dawley, rat, plasma, sc, 3 mg, 0.3 mL of 10 mg/mL A(1-7) subcutaneous injection, three rats, read-out: Half-lives): ~15 min | AUC(0-t) (female, Sprague-Dawley, rat, plasma, sc, 3 mg, SC 0.3 mL of 10 mg/mL A(1-7) in PBS, Average (PK value of the mean concentrations)): 0.0102 µg·h/mL | Cmax (female, Sprague-Dawley, rat, plasma, sc, 3 mg, SC 0.3 mL of 10 mg/mL A(1-7) in PBS, Average (PK value of the mean concentrations), read-out: Cmax): 9.2 ng/mL | Tmax (female, Sprague-Dawley, rat, plasma, sc, 3 mg, SC 0.3 mL of 10 mg/mL A(1-7) in PBS, Average (PK value of the mean concentrations), read-out: Tmax (converted)): 20 min | AUC(0-t) (female, Sprague-Dawley, rat, plasma, sc, 3 mg, SC 0.3 mL of 10 mg/mL A(1-7) in PBS, Mean PK Value (average of individual PK parameters)): 0.0102 µg·h/mL | Cmax (female, Sprague-Dawley, rat, plasma, sc, 3 mg, SC 0.3 mL of 10 mg/mL A(1-7) in PBS, Mean PK Value (average of individual PK parameters), read-out: Cmax): 17.2 ng/mL | Half-Life (female, Sprague-Dawley, rat, plasma, sc, 3 mg, SC 0.3 mL of 10 mg/mL A(1-7) in PBS, Mean PK Value (average of individual PK parameters), read-out: Half-Life): 15.1 min | Tmax (female, Sprague-Dawley, rat, plasma, sc, 3 mg, SC 0.3 mL of 10 mg/mL A(1-7) in PBS, Mean PK Value (average of individual PK parameters), read-out: Tmax (converted)): 40 min | AUC(0-t) (female, Sprague-Dawley, rat, plasma, sc, 3 mg, SC 0.3 mL of 10 mg/mL A(1-7) in PBS, individual rats): 0.00972 µg·h/mL | Cmax (female, Sprague-Dawley, rat, plasma, sc, 3 mg, SC 0.3 mL of 10 mg/mL A(1-7) in PBS, individual rats, read-out: Cmax): 18.6 ng/mL | Half-Life (female, Sprague-Dawley, rat, plasma, sc, 3 mg, SC 0.3 mL of 10 mg/mL A(1-7) in PBS, individual rats, read-out: Half-Life): 15 min
Structure (SMILES): CC[C@H](C)[C@H](NC(=O)[C@H](Cc1ccc(O)cc1)NC(=O)[C@@H](NC(=O)[C@H](CCCNC(=N)N)NC(=O)[C@@H](N)CC(=O)O)C(C)C)C(=O)N[C@@H](Cc1c[nH]cn1)C(=O)N1CCC[C@H]1C(=O)O [Angiotensin (1-7), Asp^1-Arg^2-Val^3-Tyr^4-Ile^5-His^6-Pro^7]
Angiotensin (1-7) concentration (SC 0.3 mL of 10 mg/mL A(1-7) in PBS, time point 0 min (before injection), individual rats): 0.121 ng/mL and 10.2 ng/mL and 1.41 ng/mL | Angiotensin (1-7) concentration (SC 0.3 mL of 10 mg/mL A(1-7) in PBS, time point 5 min, individual rats): 0.120 ng/mL and 7.47 ng/mL and 4.37 ng/mL | Angiotensin (1-7) concentration (SC 0.3 mL of 10 mg/mL A(1-7) in PBS, time point 40 min, individual rats): 15.30 ng/mL and 6.38 ng/mL and 4.47 ng/mL
